Test results from patent US8163269B2, “Bioactive stents for type II diabetics and methods for use thereof” (priority 2004, dated 2012).
No end group written: not given here.

How the values were obtained:
[1] = tested on: endothelial cells (ECs), HCAEC=Human Coronary Artery Endothelial Cells; assay: in vitro adhesion assay, attachment factor adsorbed onto non-tissue culture dish; format: cell-based; settings: for specificity of cell adhesion, ECs over SMCs: HCAEC versus HASMC, adsorbed peptide; for adhesion data among bioligands tested / cell adhesion and cell spreading compared with fibronectin positive control: adsorbed attachment factor
Source text: Cell Recruitment to Bioactive Agents To select appropriate bioligands for use as recruitment factors in stent applications, an in vitro adhesion assay was developed. This assay can distinguish between endothelial cells (ECs) and smooth muscle cells (SMCs) to aid in selecting potential attachment factors. Both the ECs and SMCs used in these assays were purchased from Cambrex (Baltimore, Md.) (HASMC=Human Aortic Smooth Muscle Cells and HCAEC=Human Coronary Artery Endothelial Cells).
(§1) The attachment factor, in a phosphate buffered saline (PBS) solution, was coated onto a non-tissue culture dish and allowed to adsorb overnight at 4° C. The following day the plate was blocked for 1 hour at room temperature with heat-inactivated, 0.2% bovine serum albumin (BSA) solution (in PBS) to prevent non-specific attachment. A timed adhesion assay was then conducted. The assay includes negative control wells coated only with PBS and positive control wells coated with fibronectin. So far, none of the adhesion factors tested has surpassed the cell adhesion and cell spreading induced by fibronectin. In addition to adhesion, spreading is also an important consideration in determining the suitability of a substrate. If the cells are not able to spread, it is unlikely that the cells will proliferate on that surface.
In addition to microscopic observations, cell adhesion was quantitated using an ATP assay. Data of a representative adhesion assay quantitation by ATP standard curve is shown in the graph in FIG. 4, which illustrates the comparative results obtained at 2, 4 and 6 hours into the assay. […] The cell spreading determined in microscopic observations may indicate that cell spreading can increase the overall degree of cell adhesion since more space is occupied by a well spread cell than by an adhered cell that has not spread on the surface, due to timing of data points or appropriateness of the substrate used. The ATP data are useful to support the observational findings of the adhesion assay but cannot replace the adhesion assay.

ECs = assay: adhesion assay with peptides conjugated to PEA polymer; format: cell-based, Human; settings: for ability of peptide to bind to cells after conjugation / adhesion of ECs compared to SMCs on conjugated peptide versus unconjugated PEA-H polymer: peptide conjugated to PEA-H polymer; for adhesion relative to basal levels: assays 1 and 2
Experimental: as §1
The first conjugation was done to the PEA-H version of the polymer (acid) since this polymer has suitable sites for conjugation. The peptides can be covalently bound to this polymer via a wide variety of suitable functional groups. For example, when the biodegradable polymer is a poly(ester amide) (PEA) containing Lysine residues, the carboxyl groups from the Lysine residues can be used to react with a complementary moiety on the peptide, such as an hydroxy, amino, thio moiety, and the like (5). Specifically, the PEA-H polymer with free COOH reacts with water soluble carbodiimide (WSC) and N-Hydroxysuccinimide (HOSu) to produce an activated ester, which, in turn, reacts with an amino functional group of a peptide to provide an amide linkage (FIG. 6B). By using a fluorescent dansyl-lysine (FIG. 5), the optimal reaction conditions for activation and conjugation were determined (FIG. 6A).
The conjugation of CS5 and GREDVDY peptides to the polymer was then performed using the same protocol (FIG. 6B).
A similar protocol (see flow chart FIG. 6B) was used to conjugate combinations of the acid polymer with PEA polymer of structure (I) containing acetylated ends and benzylated COOH groups, (PEA-AcBz) and PEA-TEMPO (50/50 and 10/90), respectively. By combining the conjugatable acid form with the other polymers, a determination could be made whether the presence of the recruitment peptide on the polymer conferred an advantage in EC recruitment.
Microscopic observations taken at 2 h, 4 h and 6 h from duplicate wells from two representative adhesion assays are summarized in Table 2 below.

[2] = tested on: progenitor endothelial cells (PECs); assay: trial PEC isolation, plating on coated plates; format: cell-based, human; settings: fibronectin-coated versus gelatin-coated plates
Source text: PEC Isolations To establish the protocol for isolating the progenitor endothelial cells (PECs) from peripheral blood, blood from healthy, normal donors was used. A literature review generated multiple PEC isolation protocols (J.C.I. (2000) 105:71-77; Circ. (2003) 107:143-149; Circ. (2003) 107:1164-1169; Plast. Reconstruc. Surgr. (2004) 113:284; and Am. J. Physiol. Heart Circ. Physiol. (2004) 286:H1985-H1993). […] The flow chart in FIG. 2 presents a modified protocol followed in isolation of PECs.
Cells were isolated from ˜120 milliliters of peripheral blood and then single aliquots of cells were plated in Endothelial Basal Medium and 5% FBS (Cambrex). The media was changed every 4-5 days. The total cell number obtained from the isolations was donor-dependent and ranged from 40 million to 200 million cells.

Row | Substance | specificity of cell adhesion, ECs over SMCs [1] | adhesion data among bioligands tested [1] | cell adhesion and cell spreading compared with fibronectin positive control [1] | ability of peptide to bind to cells after conjugation (ECs) | adhesion of ECs compared to SMCs on conjugated peptide versus unconjugated PEA-H polymer (ECs) | adhesion relative to basal levels (ECs; 10/90 PEA-H/PEA-TEMPO (H/T) conjugated to peptide) | adhesion relative to basal levels (ECs; 50/50 PEA-H/PEA-Ac-Bz (H/Bz) conjugated to peptide) | cell recruitment, complete evaluation of assays with conjugated peptides on polymer (ECs; Table 2 assays) | attachment and growth of isolated cells on coated plates [2]
1 | GEEIQIGHIPREDVDYHLYP [CS5] | showed specificity for ECs over SMCs | gave the most promising adhesion data | neither of these peptide sequences equaled the large molecule fibronectin in cell adhesion or spreading | did not alter their ability to bind to cells | adhered significantly better to the conjugated peptides than on the unconjugated PEA-H polymer |  |  |  | 
2 | GREDVDY | showed specificity for ECs over SMCs | gave the most promising adhesion data | neither of these peptide sequences equaled the large molecule fibronectin in cell adhesion or spreading | did not alter their ability to bind to cells | adhered significantly better to the conjugated peptides than on the unconjugated PEA-H polymer | increased adhesion over basal levels | increased adhesion over basal levels | more robust in cell recruitment than the longer (20 mer) CS5 peptide | 
3 | fibronectin |  |  |  |  |  |  |  |  | attach and grow better on fibronectin-coated plates than on gelatin-coated plates
